Experimental findings from BindingDB's records for PubMed 40136287 (CSIR-Institute of Microbial Technology) are described below.

This test deals with Metallo-beta-lactamase type 2 (Klebsiella pneumoniae, UniProt C7C422). Description: Inhibition of NDM1 (unknown origin).

The structures appear in SMILES notation.

Chain of Metallo-beta-lactamase type 2 (C7C422 whole entry): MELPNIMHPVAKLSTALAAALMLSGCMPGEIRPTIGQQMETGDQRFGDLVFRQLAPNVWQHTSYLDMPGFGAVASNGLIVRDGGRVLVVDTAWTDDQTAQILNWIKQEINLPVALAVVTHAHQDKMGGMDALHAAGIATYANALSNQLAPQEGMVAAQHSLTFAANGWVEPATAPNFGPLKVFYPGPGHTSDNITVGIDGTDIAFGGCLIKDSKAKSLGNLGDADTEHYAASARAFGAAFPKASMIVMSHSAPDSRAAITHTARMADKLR

`O=C(O)c1ccccn1` had an IC50 of 17.1 µM. That is a double-digit micromolar value.
